ChEMBL document CHEMBL4184249, “Structural development of tetrachlorophthalimides as liver X receptor β (LXRβ)-selective agonists with improved aqueous solubility” (Bioorg Med Chem Lett, 2018)
The source made the active and inactive calls. No cut-off for these calls is given here.

Experiments:
[1] = biological target: T1, Peroxisome proliferator-activated receptor alpha (Homo sapiens) (UniProt Q07869); experiment: Agonist activity at GAL4-tagged PPARalpha (unknown origin) expressed in HEK293 cells co-expressing CMX-beta-galactosidase at 0.3 to 30 uM incubated for 16 hrs by luciferase reporter gene assay; format: cell-based
T1 sequence (whole entry): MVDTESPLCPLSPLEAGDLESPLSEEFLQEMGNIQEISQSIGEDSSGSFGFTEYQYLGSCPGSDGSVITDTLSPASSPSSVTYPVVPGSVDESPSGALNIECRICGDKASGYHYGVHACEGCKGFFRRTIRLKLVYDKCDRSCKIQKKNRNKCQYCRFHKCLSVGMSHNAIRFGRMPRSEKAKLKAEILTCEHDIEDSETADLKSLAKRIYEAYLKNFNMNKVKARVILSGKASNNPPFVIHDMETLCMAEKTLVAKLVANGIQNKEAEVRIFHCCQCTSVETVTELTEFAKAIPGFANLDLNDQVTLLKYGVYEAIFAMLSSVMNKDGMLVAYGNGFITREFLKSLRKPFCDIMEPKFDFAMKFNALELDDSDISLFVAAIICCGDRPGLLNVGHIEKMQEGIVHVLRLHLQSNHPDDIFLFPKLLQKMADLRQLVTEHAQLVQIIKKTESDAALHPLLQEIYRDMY

[2] = biological target: T2, Oxysterols receptor LXR-beta (Homo sapiens) (UniProt P55055); experiment: Agonist activity at LXRbeta in human THP1 cells assessed as increase in ABCA1 mRNA expression at 1 uM by real-time quantitative RT-PCR method; format: cell-based
T2 sequence (whole entry): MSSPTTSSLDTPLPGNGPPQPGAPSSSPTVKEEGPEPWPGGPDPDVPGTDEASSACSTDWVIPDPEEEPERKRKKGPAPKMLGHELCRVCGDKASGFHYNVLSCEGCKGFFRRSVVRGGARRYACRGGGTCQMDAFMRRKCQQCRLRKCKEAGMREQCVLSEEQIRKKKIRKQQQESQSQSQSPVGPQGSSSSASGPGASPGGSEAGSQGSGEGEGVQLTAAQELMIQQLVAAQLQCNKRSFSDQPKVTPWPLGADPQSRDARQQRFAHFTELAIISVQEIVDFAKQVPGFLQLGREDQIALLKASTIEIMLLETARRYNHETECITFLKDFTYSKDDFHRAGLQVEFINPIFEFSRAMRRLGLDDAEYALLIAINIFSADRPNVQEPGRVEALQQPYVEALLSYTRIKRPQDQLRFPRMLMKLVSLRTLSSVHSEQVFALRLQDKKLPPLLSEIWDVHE

[3] = biological target: T3, Oxysterols receptor LXR-alpha (Mus musculus) (UniProt Q9Z0Y9); experiment: Agonist activity at mouse LXRalpha expressed in HEK293 cells co-expressing CMX-beta-galactosidase at 30 uM incubated for 16 hrs by luciferase reporter gene assay; format: cell-based
T3 sequence (whole entry): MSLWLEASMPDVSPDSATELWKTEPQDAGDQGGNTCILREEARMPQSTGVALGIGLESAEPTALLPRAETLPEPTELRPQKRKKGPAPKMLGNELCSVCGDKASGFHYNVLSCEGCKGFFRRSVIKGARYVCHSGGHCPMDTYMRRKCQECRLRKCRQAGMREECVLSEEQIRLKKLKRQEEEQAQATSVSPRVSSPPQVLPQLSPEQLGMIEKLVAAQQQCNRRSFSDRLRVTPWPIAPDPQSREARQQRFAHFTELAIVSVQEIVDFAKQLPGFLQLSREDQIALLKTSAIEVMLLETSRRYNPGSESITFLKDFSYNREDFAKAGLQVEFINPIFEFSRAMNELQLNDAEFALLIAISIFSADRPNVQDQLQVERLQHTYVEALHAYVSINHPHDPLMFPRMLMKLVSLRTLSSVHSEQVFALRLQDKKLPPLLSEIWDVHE

[4] = biological target: T4, Oxysterols receptor LXR-beta (Homo sapiens, UniProt P55055); experiment: Agonist activity at LXRbeta ligand-binding domain (unknown origin) incubated for 1.5 hrs using fluorescein-labeled coactivator peptide by TR-FRET competitive binding assay
[5] = biological target: T5, Retinoic acid receptor alpha (Homo sapiens) (UniProt P10276); experiment: Agonist activity at GAL4-tagged RARalpha (unknown origin) expressed in HEK293 cells co-expressing CMX-beta-galactosidase at 0.3 to 30 uM incubated for 16 hrs by luciferase reporter gene assay; format: cell-based
T5 sequence (whole entry): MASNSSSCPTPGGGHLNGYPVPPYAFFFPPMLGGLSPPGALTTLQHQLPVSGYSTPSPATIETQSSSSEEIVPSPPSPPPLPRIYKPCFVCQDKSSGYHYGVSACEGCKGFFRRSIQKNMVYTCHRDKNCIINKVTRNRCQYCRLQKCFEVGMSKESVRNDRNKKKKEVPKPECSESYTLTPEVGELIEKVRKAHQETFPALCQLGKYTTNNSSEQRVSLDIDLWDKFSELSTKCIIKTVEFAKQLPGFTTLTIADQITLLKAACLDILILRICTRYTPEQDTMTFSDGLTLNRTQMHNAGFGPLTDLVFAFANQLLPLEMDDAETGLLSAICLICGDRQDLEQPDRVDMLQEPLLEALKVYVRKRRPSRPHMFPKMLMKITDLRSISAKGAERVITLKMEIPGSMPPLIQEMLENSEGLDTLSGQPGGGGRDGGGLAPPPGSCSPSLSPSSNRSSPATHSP

[6] = biological target: T6, Oxysterols receptor LXR-beta (Mus musculus) (UniProt Q60644); experiment: Agonist activity at mouse LXRbeta expressed in HEK293 cells co-expressing CMX-beta-galactosidase incubated for 16 hrs by luciferase reporter gene assay relative to T0901317; format: cell-based
T6 sequence (whole entry): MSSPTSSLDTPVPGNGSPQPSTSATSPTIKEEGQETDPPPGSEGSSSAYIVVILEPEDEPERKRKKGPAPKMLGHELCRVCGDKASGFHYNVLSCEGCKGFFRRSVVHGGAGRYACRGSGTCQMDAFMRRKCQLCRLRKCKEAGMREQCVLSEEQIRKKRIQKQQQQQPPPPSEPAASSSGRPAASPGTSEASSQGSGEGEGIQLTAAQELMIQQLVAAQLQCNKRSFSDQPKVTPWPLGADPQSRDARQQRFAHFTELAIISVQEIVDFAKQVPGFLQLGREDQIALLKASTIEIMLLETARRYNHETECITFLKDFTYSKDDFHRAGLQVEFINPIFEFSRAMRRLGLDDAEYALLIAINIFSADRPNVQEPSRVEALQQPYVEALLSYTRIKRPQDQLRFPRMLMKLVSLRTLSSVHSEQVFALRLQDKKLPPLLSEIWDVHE

[7] = biological target: T4, Oxysterols receptor LXR-beta; experiment: Agonist activity at LXRbeta ligand-binding domain (unknown origin) at 3 uM incubated for 1.5 hrs using fluorescein-labeled coactivator peptide by TR-FRET competitive binding assay relative to T0901317

Question: `O=C1c2c(Cl)c(Cl)c(Cl)c(Cl)c2C(=O)N1c1ccccc1/C=C/c1cccs1` was tested. Which Activity [1] did it give?
Answer: The Activity was “inactive”.

Question: What about the Activity [2] of the same compound?
Answer: Its Activity is “Active”.

Question: What about the Activity [3] of the same compound?
Answer: The Activity was “inactive”.

Question: And the EC50 [4]?
Answer: Its EC50 is 40.4 nM.

Question: What about the Efficacy [5] of the same compound?
Answer: The Efficacy was 6%.

Question: What about the Efficacy [6] of the same compound?
Answer: The Efficacy was 24%.

Question: What about the Efficacy [7] of the same compound?
Answer: Its Efficacy is 14%.
